Source: patent US20230390297A1, “USE OF NUCLEOTIDE SYNTHESIS INHIBITORS FOR TARGETED THERAPY IN MLL3/4 COMPASS MUTANT CANCER” (priority 2022, published 2023)

Experiments:
Mll3/4 KO mESCs = test: CellTiter-Glo luminescent cell viability assay in WT and Mll3/4 KO mESCs; format: cell-based, mouse; settings: 48 hours
Protocol: FIG. 3. […] (A) WT and Mll3/4 KO cells were treated with 0-2.5 μM lometrexol (LTX)−/+50 hypoxanthine (HPX) for 48 hours. CellTiter-Glo® luminescent cell viability assay was performed to determine the percentage of inhibition under these conditions. (B) WT and KO cells were treated with 0.3 μM LTX−/+50 μM HPX for 48 hours, and cells were harvested for RNA-seq. Differential gene expression analyses were performed with indicated comparisons. (C) Principal component analysis of RNA-seq in (B). (D) Hierarchical clustering heatmap showing differentially expressed genes in KO cells in comparison with WT cells.
FIG. 10. Mll3/4 KO mESCs are more sensitive to purine synthesis inhibition. (A-B) WT and Mll3/4 KO cells were treated with 0-2.5 μM lometrexol (LTX) (A) or 0-5 methotrexate (MTX) (B) for 48 hours. CellTiter-Glo® luminescent cell viability assay was performed to determine the percentage of inhibition under these conditions with three different Mll3/4 KO clones included. (C) WT and Mll3/4 KO cells were treated with 0-40 μM SHIINI for 48 hours. MTT cell viability assay was performed to determine the percentage of inhibition under these conditions with three different Mll3/4 KO clones included.

MLL3/4 ΔSET cells = test: CellTiter-Glo viability assay in WT, MLL3/4 ΔSET and MLL3/4 KO cells; format: cell-based, mouse; settings: 0-2.5 μM LTX, 72 hours
Description: FIG. 11. […] (A) Western blot showing MLL4, MLL3, NCOA6, UTX, RbBP5 and ASH2L protein levels in WT, MLL3/4 ASET and MLL3/4 KO cells with Hsp90 as the loading control. Bulk levels of histone H3K4me1, H3K4me2, H3K4me3 and H3K27Ac were also shown. N, N-terminus; C, C-terminus. mESCs harboring deletion of the SET domains of both MLL3 and MLL4 (referred to as MLL3/4 ΔSET) were generated in our previous studies (20). (B) Western blot showing nuclear and cytoplasmic MLL4, UTX, NCOA6 and RBBP5 protein levels after cell fractionation, with MLL1 and Hsp90 serving as nuclear and cytoplasmic loading control. (C) WT, MLL3/4 ΔSET and MLL3/4 KO cells were treated with 0-2.5 μM lometrexol (LTX) for 72 hours. CellTiter-Glo® luminescent cell viability assay was performed to determine the percentage of inhibition.

[1] = tested on: MLL4 mutant colorectal cancer cells (SW480, DLD1, HCT116, RKO); test: CellTiter-Glo viability assay in MLL4 wild type and MLL4 mutant colorectal cell lines; format: cell-based, human; settings: 72 hours; LTX 0-30 μM, Piericidin A 0-10 μM, Phenformin 0-30 mM
HT55 (MLL4 WT) xenograft = test: HT55 subcutaneous xenograft in nude mice; format: in vivo
Protocol: FIG. 20. Lometrexol application in MLL4 mutant tumors in the xenograft mouse models. (A-D) Tumor development after inoculation of 4×10^6 of HT55 cells into the nude mice. Mice with HT55 subcutaneous (sc) tumor were either treated with vehicle (DMSO, n=9) or LTX (15 mg/kg, n=9) daily for 7 days. (A) Growth plots for sc tumors in each treatment group were shown. Tumor volumes (mm3) show mean and upper SD. (B) Dot plot representation of sc tumor volume in mice at day 18 post-tumor cell injection. […] (C) Photographs of nude mice (upper) and sc tumor taken from these mice (lower) in which HT55 cells were inoculated into the right flank. (D) Animal survival at the indicated days after inoculation. Log-rank test was used for comparisons between DMSO and LTX treatment. (E-H) Tumor development after inoculation of 4×10^6 of HCT116 cells into the nude mice. […]
Six-week-old female athymic mice (nu/nu genotype, BALB/c background) were purchased from Envigo (Indianapolis, IN, USA) and housed under aseptic conditions. […] The tumor sizes were measured on alternate days and the mice were euthanized when the tumor size reached 1000 mm^3. […]
For in vivo study, the Kaplan-Meier estimator and Prism software were used to generate and analyze survival plots. Differences between survival plots were calculated using a log-rank test. […]

[2] = tested on: BBN induced bladder cancer, MLL4 mutant tumors; test: BBN induced bladder cancer mouse model; format: in vivo, C57BL/6J male mice; settings: 15 mg/kg intraperitoneal twice a week for 12 weeks; Fisher's exact test, p=0.037
Description: N-butyl-N-(4-hydroxybutyl)-nitrosamine (BBN) is a carcinogen, that mimics the tobacco use in human. When administered to C57/B6 male mice in drinking water for at least 20 weeks, causes muscle invasive bladder tumors (MIBC) (1). Besides, 70% of Kmt2d/MLL4 is mutated in BBN mouse model, mimicking high MLL4 mutation rate (and low UTX mutation rate) found in […] (1, 2). Thus, we believe that this is a valuable system where we could examine the effect of lometrexol in bladder cancer based on the MLL4 mutation stratification.
Experiment design: Thirty 7-week-old C57BL/6J male mice were used in our study to induce bladder cancer by feeding them with 0.1% BBN containing water for 6 weeks. The mice were then randomized into two groups: DMSO (n=15) or lometrexol treatment (n=15) and were given intraperitoneal injections of the respective treatments twice a week at a dose of 15 mg/kg for 12 weeks. At the end of the treatment period, the bladder tissues of the mice were harvested for H&E staining and RNA isolation. Each mouse's tumor grade was assessed, and RNA samples were analyzed for mutations in the kmt2d/MLL4 gene through mRNA-seq. Finally, we compared the MLL4 genotype and treatment to the tumor stage to assess the effectiveness of the treatment.

Nc1nc2c(c(=O)[nH]1)C[C@@H](CCc1ccc(C(=O)N[C@@H](CCC(=O)O)C(=O)O)cc1)CN2 [lometrexol, (2S)-2-[[4-[2-[(6R)-2-amino-4-oxo-5,6,7,8-tetrahydro-3H-pyrido[2,3-d]pyrimidin-6-yl]ethyl]benzoyl]amino]pentanedioic acid]
sensitivity of Mll3/4 KO cells compared with WT cells (percentage of inhibition of viability) (Mll3/4 KO mESCs; LTX 0-2.5 μM, MTX 0-5, three Mll3/4 KO clones): elevated sensitivity to LTX in Mll3/4 KO cells | rescue of cell growth and/or viability inhibition by hypoxanthine (Mll3/4 KO mESCs; LTX 0-2.5 μM + 50 hypoxanthine (HPX)): completely rescued by HPX | sensitivity of MLL3/4 ΔSET cells compared with WT mESCs (percentage of inhibition) (MLL3/4 ΔSET cells): indistinguishable sensitivity to LTX in comparison to WT mESCs | sensitivity of MLL4 mutant cells compared with MLL4 wild type cells (growth inhibition) [1]: selectively more sensitive | sc tumor volume at day 18 post-tumor cell injection, DMSO vs LTX (unpaired t-test) (HT55 (MLL4 WT) xenograft; LTX 15 mg/kg daily for 7 days): not statistically significant | tumor growth (HT55 (MLL4 WT) xenograft; LTX 15 mg/kg daily for 7 days vs DMSO): almost completely resistant to LTX | tumor stage of mice with MLL4 mutant tumors compared with other groups [2]: significant lowered tumor stages
